Measurements from patent US20230301890A1, “COMPOSITIONS COMPRISING UROLITHINS” (Amazentis SA, priority 2022, published 2023).

Key:
[1] = test system: reconstructed human epidermis (RHE); test: PGE2 release in reconstituted human epidermis under UV stimulation; type: cell-based; settings: UVB (+UVA) irradiated RHE
Procedure: Ten-day-old reconstructed human epidermis (RHE) were placed in maintenance medium. The RHE were topically treated with or without moisturizing creams containing different concentration of Urolithin A active and incubated for 24 hours. The RHE were then rinsed in PBS and irradiated with UVB (+UVA)—850 mJ/cm^2 (+6 J/cm^2) using a SOL500 Sun Simulator equipped with an H2 filter (Dr. Hönle, AG). After irradiation, the treatments were renewed and the RHE were incubated for 24 hours. In parallel, non-irradiated conditions were performed and kept in the dark during the irradiation time. All experimental conditions were performed in n=3. PGE2 released in the culture supernatants was measured using a specific ELISA kit according to the supplier's instructions (Enzo Life Sciences, ref. ADI-900-001). Statistical analysis performed by One-Way Anova.

[2] = test system: Normal Adult Human Epidermal Keratinocytes (NHEK-Ad); test: RNA sequencing gene expression in human primary keratinocytes; type: cell-based; settings: for expression of autophagy/mitophagy and mitochondrial function genes / expression of MMP1: vs DMSO/vehicle
Procedure: Study was conducted on Normal Adult Human Dermal Fibroblasts (NHDF-Ad) from two pooled donors (Catalog #: CC-2511) and Normal Adult Human Epidermal Keratinocytes (NHEK-Ad) from two pooled donors (Catalog #: 00192627, Lonza). The primary skin cells were amplified in flask and seeded in 12-well cell culture plates, filled with 1 mL of culture medium and then incubated at 37° C. with 5% CO2 and saturated hygrometry. The basic culture medium of human dermal fibroblasts was composed of FBM™ medium (Fibroblast Growth Basal Medium) supplemented with insulin 0.1%, hFGF-B 0.1%, GA-1000 0.1% and FBS 2%. The basic culture medium of human keratinocytes was composed of KBM™ Gold medium (Keratinocytes Basal Medium) supplemented with Hydrocortisone, Transferrin, Epinephrine, Gentamycin, Amphotericin B, BPE, hEGF and Insulin. Primary cells were treated at confluency (approximatively 250000 cells per well) with 0.1% DMSO (control), 2.5 μM and 10 μM of Urolithin A for 24 h, and harvested for RNA sequencing and expression profiling using the NGS platform.

## O=c1oc2cc(O)ccc2c2ccc(O)cc12 [Urolithin A]
[1]; all UA concentrations tested
  PGE2 secretion compared to irradiated skin treated with basic cream formulation without UA: significantly reduces PGE2 secretion
[1]; cream with UA at 0.5%, 1% and 2%, supernatant ELISA
  PGE2 secretion compared to irradiated non-treated skin: significantly reduces PGE2 secretion
[2]; 2.5 uM or 10 uM, 24 h, vs DMSO
  expression of genes encoding collagen degradation enzymes (MMPs, ADAMs): reduces expression
  expression of genes encoding proinflammatory cytokines (IL1A, IL1B): reduces expression
[2]; 2.5 uM or 10 uM, 24 h
  expression of autophagy/mitophagy and mitochondrial function genes: increases the expression
[2]; 2.5 uM or 10 uM, 24 h, listed as UA
  expression of autophagy/mitophagy and mitochondrial function genes: upregulated
[2]; 2.5 uM or 10 uM, vs DMSO
  expression of mitophagy marker PINK1: increased
[2]; 24 h
  expression of MMP1: decreases
[2]; 24 h, listed as UA
  expression of MMP1: drastic downregulation
[2]; 24 h, vs vehicle
  expression of MMP3: drastic downregulation
